pEC50: −log10 of the molar value.
How the values were obtained:
Vaccinia VP13 = experiment: microbe, parasite or virus in culture; assay type: cell-based, Vaccinia virus; details: for pEC50: Orthopoxvirus vaccinia, HFF-1, 96 h
Monkeypox virus = experiment: microbe, parasite or virus in culture; assay type: cell-based; details: for pEC50: Monkeypox virus, HFF-1, 96 h
Cowpox virus = experiment: microbe, parasite or virus in culture; assay type: cell-based; details: for pEC50: Cowpox virus, HFF-1, 96 h
Smallpox virus = experiment: microbe, parasite or virus in culture; assay type: cell-based; details: for pEC50: Variola virus, HFF-1, 96 h
in vitro = details: human

Structure (SMILES)	activity to inhibit vaccinia virus (in words) (Vaccinia VP13)	pEC50 (Vaccinia VP13)	activity to inhibit monkeypox virus (in words) (Monkeypox virus)	pEC50 (Monkeypox virus)	activity to inhibit cowpox virus (in words) (Cowpox virus)	pEC50 (Cowpox virus)	activity to inhibit smallpox virus (in words) (Smallpox virus)	pEC50 (Smallpox virus)	CC50 (in vitro)
[N-]=[N+]=NC1(CO)OC(n2ccc(N)nc2=O)C(F)C1O (centres unmarked) [Compound 1, Azvudine]	significant inhibitory effect	6.24	significant inhibitory effect	6.49	significant inhibitory effect	6.12	significant inhibitory effect	5.92	> 10 µM
O=C(NN1C(=O)[C@@H]2[C@@H]3C=C[C@@H]([C@H]4C[C@@H]34)[C@@H]2C1=O)c1ccc(C(F)(F)F)cc1 [ST-246, reference compound]	–	7.40	–	7.52	–	7.30	–	7.15	> 100 µM

Source: patent US20260137710A1, “PHARMACEUTICAL USE OF NUCLEOSIDE COMPOUND” (priority 2022, published 2026)
